In PubChem BioAssay (NCI) one finds TGI data, which are given here for 8 compounds.

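Tested at 5 concentrations; 48 h exposure; 96-well plates; endpoints linearly interpolated, else capped at highest concentration. At the TGI there is no net growth.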

Common to all, as to experiment: NCI-60 cell line screen, 48 h
The test system of assay [1] is OVCAR-8 ovarian.
Assay [2] deals with DU-145 prostate.
Assay [3] concerns U251 CNS.
The subject of assay [4] is IGROV1 ovarian.
The subject of assay [5] is SF-295 CNS.
For assay [6], the system named is OVCAR-5 ovarian.
The subject of assay [7] is COLO 205 colon.
Assay [8] concerns NCI-H522 lung.
Assay [9] deals with A549 NSCLC.
The subject of assay [10] is 786-0 renal.
Assay [11] concerns MDA-N.
Assay [12] relates to RXF 393 renal.
Assay [13] deals with SN12C renal.
In assay [14] the test system is HCT-116 colon.
In assay [15] the test system is UACC-257 melanoma.
The test system of assay [16] is LOX IMVI melanoma.
Assay [17] relates to PC-3 prostate.
The subject of assay [18] is SK-MEL-2 melanoma.
Assay [19] concerns MDA-MB-231 breast.

As to `c1ccc(C2(c3ccccc3)S/C(=C3/SC(c4ccccc4)(c4ccccc4)c4ccccc43)c3ccccc32)cc1`, the TGI in assay [1], in [2], in [3], in [4], in assay [5] and in assay [6] was more than 100 µM throughout. Moreover, the TGI in [7], in assay [8], in [9], in assay [10], in assay [11] and in [12] was more than 100 µM throughout. Moreover, the TGI in assay [13], in assay [14], in assay [15], in [16], in [17] and in [18] was more than 100 µM throughout. Moreover, the TGI in assay [19] is more than 100 µM.
Consider `C=CC(C)CCC(C/C=C(\C)CCCC(C)C)C(=C)CCCC(C)C` (centres undefined), for which the TGI in [1], in [2], in assay [3], in assay [4], in [5] and in assay [6] was more than 100 µM throughout. Further, the TGI in assay [7], in assay [8], in assay [9], in assay [10], in [11] and in [12] was more than 100 µM each time. Also, the TGI in assay [13], in assay [14], in assay [15], in [16], in assay [17] and in [18] was more than 100 µM each time. In addition, in assay [19], the TGI is more than 100 µM.
`CCOC(=O)c1ccc(OCc2nc3cc(C(F)(F)F)ccc3nc2-c2ccccc2)cc1`: the TGI in [1], in assay [2], in assay [3], in [4], in [5] and in [6] was more than 100 µM in each case. The TGI in [7], in assay [8], in assay [9], in [10], in assay [11] and in assay [12] was more than 100 µM each time. Further, the TGI in assay [13], in assay [14], in [15], in assay [16], in assay [17] and in [18] was more than 100 µM each time. The TGI in assay [19] is more than 100 µM.
As to `CC[C@]1(Cc2ccc(OC)c(OC)c2)C=[N+]([O-])O[C@H](OC2CCCCC2c2ccccc2)[C@@H]1OC(C)=O` (some centres undefined), the TGI in assay [1], in [2], in assay [3], in assay [4], in [5] and in assay [6] was more than 100 µM each time. In addition, the TGI is 40.5 µM in assay [7]; more than 100 µM in assay [8]; more than 100 µM in [9]; more than 100 µM in assay [10]; more than 100 µM in [11]; 94.1 µM in assay [12]. Also, the TGI in assay [13], in assay [14], in assay [15], in [16], in [17] and in assay [18] was more than 100 µM throughout. In assay [19], this compound showed a TGI of more than 100 µM.
Turning to `CC(=O)N(C(=O)CC(=O)NNCc1ccccc1Cl)c1ccc(Cl)cc1`, the TGI in [1], in assay [2], in [3], in [4], in [5] and in assay [6] was more than 10 µM each time. In addition, the TGI in [7], in [8], in assay [9], in assay [10], in assay [11] and in [12] was more than 10 µM throughout. For the same compound, the TGI in assay [13], in assay [14], in assay [15], in assay [16], in assay [17] and in assay [18] was more than 10 µM in each case. The compound also had a TGI in assay [19] of more than 10 µM.
In the case of `CC1(C)CC(=O)c2c([nH]c(=S)c(C#N)c2-c2ccc(Br)cc2)C1`, the TGI in assay [1], in assay [2], in assay [3], in assay [4], in [5] and in assay [6] was more than 100 µM in each case. The TGI in assay [8], in assay [9], in [10], in assay [11], in [12] and in assay [13] was more than 100 µM throughout. Also, the TGI in assay [14] is more than 100 µM; in assay [15], more than 100 µM; in [16] it was more than 100 µM; in [17] it was more than 100 µM; in [18] it was 76.6 µM; in assay [19] it was more than 100 µM.
Turning to `Cc1cc2nn(C3CCCCO3)nc2cc1C` (centres undefined), the TGI in assay [1], in assay [2], in assay [3], in assay [4], in [5] and in assay [6] was more than 100 µM throughout. The TGI in assay [7], in assay [8], in assay [9], in [10], in assay [11] and in assay [12] was more than 100 µM throughout. Also, the TGI in assay [13], in [14], in assay [15], in assay [17], in assay [18] and in [19] was more than 100 µM each time.
As to `COc1cc2c(NCCN(C)C)nc3c4cc5c(cc4ccc3c2cc1OC)OCO5`, the TGI in [1] was determined as 6.97 µM; in assay [2], 7.32 µM; in assay [3], 7.83 µM; in [4] it was 5.82 µM; in [5] it was 5.7 µM; in [6] it was 6.71 µM. For the same compound, the TGI in [7] was found to be 5.82 µM; in [8] it was 8.02 µM; in assay [9], 6.67 µM; in [10], 6.15 µM; in assay [11], 6.99 µM; in assay [12] it was 7.3 µM. For the same compound, the TGI in [13] turned out to be 8.17 µM; in [14], 6.77 µM; in [15] it was 7.98 µM; in assay [17], 8.7 µM; in assay [18], 9.94 µM; in assay [19], 9.05 µM.
